Test results: patent EP0908457B1, “3-(1,2-benzisothiazol- and isoxazol-5-Y1)-2,4(1H,3H)-pyrimidinedione or thione and 3-(1,2-benzisothiazol- and isoxazol-5-y1)-4(3H)-pyrimidinone or thione herbicidal agents” (BASF AKTIENGESELLSCHAFT, priority 1997, dated 1999)

Key:
[1] = test system: Echinochloa oryzoides (Ard.) Fritsch.; assay: Preemergence weed control under flooded paddy conditions, ECHORC (Watergrass (Calif.)); type: in vivo; conditions: flooded paddy; for herbicidal effect rating, ECHORC: meaning of each grade not given here
[2] = test system: Cyperus serotinus, Rottb.; assay: Preemergence weed control under flooded paddy conditions, CYPSE (Flatsedge); type: in vivo; for herbicidal effect rating, CYPSE: meaning of each grade not given here
[3] = test system: Cyperus iria; assay: Preemergence weed control under flooded paddy conditions, CYPIR (Rice Flatsedge); type: in vivo; conditions: flooded paddy; for herbicidal effect rating, CYPIR: meaning of each grade not given here
[4] = test system: Sagittaria pygmaea, L.; assay: Preemergence weed control under flooded paddy conditions, SAGPY (Arrowhead (Pygmaea)); type: in vivo; conditions: flooded paddy; for herbicidal effect rating, SAGPY: meaning of each grade not given here
[5] = test system: Monochoria vaginalis, Presl.; assay: Preemergence weed control under flooded paddy conditions, MOOVA (Monochoria); type: in vivo; conditions: flooded paddy; for herbicidal effect rating, MOOVA: meaning of each grade not given here
[6] = test system: Oryza sativa, (L.) Tebonnet; assay: Rice tolerance to post-transplant applications under flooded paddy conditions (Example 187), ORYSAT (Rice, Tebonnet); for herbicidal effect rating ORYSAT: meaning of each grade not given here
[7] = Rate 0.0320 kg/ha, preemergence, rated 3-4 weeks after treatment
[8] = Rate 0.0620 kg/ha, preemergence, rated 3-4 weeks after treatment
[9] = Rate 0.1250 kg/ha, preemergence, rated 3-4 weeks after treatment
[10] = Rate 0.2500 kg/ha, preemergence, rated 3-4 weeks after treatment
[11] = Rate 0.0320 kg/ha, rated 3-4 weeks after treatment
[12] = Rate 0.0620 kg/ha, rated 3-4 weeks after treatment
[13] = Rate 0.1250 kg/ha, rated 3-4 weeks after treatment
[14] = Rate 0.2500 kg/ha, rated 3-4 weeks after treatment
[15] = Rate 0.0320 kg/ha, preemergence, rated three to four weeks after treatment
[16] = Rate 0.0620 kg/ha, preemergence, rated three to four weeks after treatment
[17] = Rate 0.1250 kg/ha, preemergence, rated three to four weeks after treatment
[18] = Rate 0.2500 kg/ha, preemergence, rated three to four weeks after treatment
[19] = Rate 0.0320 kg/ha, rated three to four weeks after treatment
[20] = Rate 0.0620 kg/ha, rated three to four weeks after treatment
[21] = Rate 0.1250 kg/ha, rated three to four weeks after treatment
[22] = Rate 0.2500 kg/ha, rated three to four weeks after treatment
[23] = 0.0313 kg/ha, preemergence weeds, rated three to four weeks after treatment
[24] = 0.0625 kg/ha, preemergence weeds, rated three to four weeks after treatment
[25] = 0.1250 kg/ha, preemergence weeds, rated three to four weeks after treatment
[26] = 0.2500 kg/ha, preemergence weeds, rated three to four weeks after treatment

Structure (SMILES): COCCCOCCCOC(=O)COc1ccc(C)cc1-c1nsc2ccc(-n3c(=O)cc(C(F)(F)F)n(C)c3=O)cc12 [Example 536, Acetic acid, {{2-{5-[3,6-dihydro-3-methyl-2,6-dioxo-4-(trifluoromethyl)-1(2H)-pyrimidinyl]-1,2-benzisothiazol-3-yl}-p-tolyl}oxy}-, 3-(3-methoxypropoxy)propyl ester]
- herbicidal effect rating, ECHORC [1, 7]: 3.0
- herbicidal effect rating, ECHORC [1, 8]: 4.0
- herbicidal effect rating, ECHORC [1, 9]: 5.0
- herbicidal effect rating, ECHORC [1, 10]: 9.0
- herbicidal effect rating, CYPSE [2, 7]: 0.0
- herbicidal effect rating, CYPSE [2, 8]: 0.0
- herbicidal effect rating, CYPSE [2, 9]: 0.0
- herbicidal effect rating, CYPSE [2, 10]: 0.0
- herbicidal effect rating, CYPIR [3, 7]: 0.0
- herbicidal effect rating, CYPIR [3, 8]: 0.0
- herbicidal effect rating, CYPIR [3, 9]: 0.0
- herbicidal effect rating, CYPIR [3, 10]: 4.0
- herbicidal effect rating, SAGPY [4, 7]: 0.0
- herbicidal effect rating, SAGPY [4, 8]: 0.0
- herbicidal effect rating, SAGPY [4, 9]: 0.0
- herbicidal effect rating, SAGPY [4, 10]: 0.0
- herbicidal effect rating, MOOVA [5, 7]: 9.0
- herbicidal effect rating, MOOVA [5, 8]: 9.0
- herbicidal effect rating, MOOVA [5, 9]: 9.0
- herbicidal effect rating, MOOVA [5, 10]: 9.0
- herbicidal effect rating ORYSAT [6, 11]: 0.0
- herbicidal effect rating ORYSAT [6, 12]: 0.0
- herbicidal effect rating ORYSAT [6, 13]: 1.0
- herbicidal effect rating ORYSAT [6, 14]: 4.0

Structure (SMILES): CNC(=O)OCc1nsc2ccc(-n3c(=O)cc(C(F)(F)F)n(C)c3=O)cc12 [Example 374, 2,4(1H,3H)-Pyrimidinedione, 3-[3-(hydroxymethyl)1,2-benzisothiazol-5-yl]-1-methyl-6-(trifluoromethyl)-, methylcarbamate (ester)]
- herbicidal effect rating, ECHORC [1, 15]: 3.0
- herbicidal effect rating, ECHORC [1, 16]: 3.0
- herbicidal effect rating, ECHORC [1, 17]: 4.0
- herbicidal effect rating, ECHORC [1, 18]: 6.0
- herbicidal effect rating, CYPSE [2, 15]: 0.0
- herbicidal effect rating, CYPSE [2, 16]: 0.0
- herbicidal effect rating, CYPSE [2, 17]: 0.0
- herbicidal effect rating, CYPSE [2, 18]: 5.0
- herbicidal effect rating, CYPIR [3, 15]: 6.0
- herbicidal effect rating, CYPIR [3, 16]: 9.0
- herbicidal effect rating, CYPIR [3, 17]: 9.0
- herbicidal effect rating, CYPIR [3, 18]: 9.0
- herbicidal effect rating, SAGPY [4, 15]: 2.0
- herbicidal effect rating, SAGPY [4, 16]: 3.0
- herbicidal effect rating, SAGPY [4, 17]: 6.0
- herbicidal effect rating, SAGPY [4, 18]: 9.0
- herbicidal effect rating, MOOVA [5, 15]: 9.0
- herbicidal effect rating, MOOVA [5, 16]: 9.0
- herbicidal effect rating, MOOVA [5, 17]: 9.0
- herbicidal effect rating, MOOVA [5, 18]: 9.0
- herbicidal effect rating ORYSAT [6, 19]: 4.0
- herbicidal effect rating ORYSAT [6, 20]: 4.0
- herbicidal effect rating ORYSAT [6, 21]: 6.0
- herbicidal effect rating ORYSAT [6, 22]: 7.0

Structure (SMILES): CCS(=O)(=O)NC(=O)c1nsc2ccc(-n3c(=O)cc(C(F)(F)F)n(C)c3=O)cc12 [Example 383, 1,2-Benzisothiazole-3-carboxamide, 5-[3,6-dihydro-3-methyl-2,6-dioxo-4-(trifluoromethyl)-1(2H)-pyrimidinyl]-N-(ethylsulfonyl)-]
- herbicidal effect rating, ECHORC [1, 15]: 4.0
- herbicidal effect rating, ECHORC [1, 16]: 6.5
- herbicidal effect rating, ECHORC [1, 17]: 7.5
- herbicidal effect rating, ECHORC [1, 18]: 8.0
- herbicidal effect rating, CYPSE [2, 15]: 4.5
- herbicidal effect rating, CYPSE [2, 16]: 5.5
- herbicidal effect rating, CYPSE [2, 17]: 7.5
- herbicidal effect rating, CYPSE [2, 18]: 9.0
- herbicidal effect rating, CYPIR [3, 15]: 2.5
- herbicidal effect rating, CYPIR [3, 16]: 7.0
- herbicidal effect rating, CYPIR [3, 17]: 7.0
- herbicidal effect rating, CYPIR [3, 18]: 8.0
- herbicidal effect rating, SAGPY [4, 15]: 3.0
- herbicidal effect rating, SAGPY [4, 16]: 7.5
- herbicidal effect rating, SAGPY [4, 17]: 9.0
- herbicidal effect rating, SAGPY [4, 18]: 9.0
- herbicidal effect rating, MOOVA [5, 15]: 9.0
- herbicidal effect rating, MOOVA [5, 16]: 9.0
- herbicidal effect rating, MOOVA [5, 17]: 9.0
- herbicidal effect rating, MOOVA [5, 18]: 9.0
- herbicidal effect rating ORYSAT [6, 19]: 3.5
- herbicidal effect rating ORYSAT [6, 20]: 4.5
- herbicidal effect rating ORYSAT [6, 21]: 6.0
- herbicidal effect rating ORYSAT [6, 22]: 6.5

Structure (SMILES): Cc1ccc(OCC(=O)OCCC2OCC(C)(C)CO2)c(-c2nsc3ccc(-n4c(=O)cc(C(F)(F)F)n(C)c4=O)cc23)c1 [Example 533, Acetic acid, {{2-{5-[3,6-dihydro-3-methyl-2,6-dioxo-4-(trifluoromethyl)-1(2H)-pyrimidinyl]-1,2-benzisothiazol-3-yl}-p-tolyl}oxy}-, 2-(5,5-dimethyl-m-dioxan-2-yl)ethyl ester]
- herbicidal effect rating, ECHORC [1, 7]: 7.5
- herbicidal effect rating, ECHORC [1, 8]: 9.0
- herbicidal effect rating, ECHORC [1, 9]: 9.0
- herbicidal effect rating, ECHORC [1, 10]: 9.0
- herbicidal effect rating, CYPSE [2, 7]: 0.0
- herbicidal effect rating, CYPSE [2, 8]: 0.0
- herbicidal effect rating, CYPSE [2, 9]: 3.0
- herbicidal effect rating, CYPSE [2, 10]: 9.0
- herbicidal effect rating, CYPIR [3, 7]: 2.0
- herbicidal effect rating, CYPIR [3, 8]: 3.0
- herbicidal effect rating, CYPIR [3, 9]: 4.0
- herbicidal effect rating, CYPIR [3, 10]: 9.0
- herbicidal effect rating, SAGPY [4, 7]: 0.0
- herbicidal effect rating, SAGPY [4, 8]: 0.0
- herbicidal effect rating, SAGPY [4, 9]: 0.0
- herbicidal effect rating, SAGPY [4, 10]: 4.0
- herbicidal effect rating, MOOVA [5, 7]: 9.0
- herbicidal effect rating, MOOVA [5, 8]: 9.0
- herbicidal effect rating, MOOVA [5, 9]: 9.0
- herbicidal effect rating, MOOVA [5, 10]: 9.0
- herbicidal effect rating ORYSAT [6, 11]: 3.0
- herbicidal effect rating ORYSAT [6, 12]: 4.5
- herbicidal effect rating ORYSAT [6, 13]: 5.0
- herbicidal effect rating ORYSAT [6, 14]: 8.0

Structure (SMILES): Cc1ccc(S(=O)(=O)NC(=O)COc2ccc(C)cc2-c2nsc3ccc(-n4c(=O)cc(C(F)(F)F)n(C)c4=O)cc23)cc1 [Example 122, N-{{{2-{5-[3,6-Dihydro-3-methyl-2,6-dioxo-4-(trifluoromethyl)-1(2H)-pyrimidinyl]-1,2-benzisothiazol-3-yl}-p-tolyl}oxy}acetyl}-p-toluenesulfonamide]
- herbicidal effect rating, ECHORC [1, 23]: 4.0
- herbicidal effect rating, ECHORC [1, 24]: 7.0
- herbicidal effect rating, ECHORC [1, 25]: 8.0
- herbicidal effect rating, ECHORC [1, 26]: 9.0
- herbicidal effect rating, CYPSE [2, 23]: 0.0
- herbicidal effect rating, CYPSE [2, 24]: 0.0
- herbicidal effect rating, CYPSE [2, 25]: 0.0
- herbicidal effect rating, CYPSE [2, 26]: 0.0
- herbicidal effect rating, CYPIR [3, 23]: 0.0
- herbicidal effect rating, CYPIR [3, 24]: 0.0
- herbicidal effect rating, CYPIR [3, 25]: 0.0
- herbicidal effect rating, CYPIR [3, 26]: 0.0
- herbicidal effect rating, SAGPY [4, 23]: 0.0
- herbicidal effect rating, SAGPY [4, 24]: 0.0
- herbicidal effect rating, SAGPY [4, 25]: 0.0
- herbicidal effect rating, SAGPY [4, 26]: 0.0
- herbicidal effect rating, MOOVA [5, 23]: 6.0
- herbicidal effect rating, MOOVA [5, 24]: 8.0
- herbicidal effect rating, MOOVA [5, 25]: 9.0
- herbicidal effect rating, MOOVA [5, 26]: 9.0
- herbicidal effect rating, ORYSAT (rice tolerance) ([6]; 0.0313 kg/ha, rated three to four weeks after treatment): 2.0
- herbicidal effect rating, ORYSAT (rice tolerance) ([6]; 0.0625 kg/ha, rated three to four weeks after treatment): 3.0
- herbicidal effect rating, ORYSAT (rice tolerance) ([6]; 0.1250 kg/ha, rated three to four weeks after treatment): 4.0
- herbicidal effect rating, ORYSAT (rice tolerance) ([6]; 0.2500 kg/ha, rated three to four weeks after treatment): 4.0

Structure (SMILES): CC(=O)/C=C/c1nsc2ccc(-n3c(=O)cc(C(F)(F)F)n(C)c3=O)cc12 [Example 285, 2,4(1H,3H)-Pyrimidinedione, 1-methyl-3-[3-(3-oxo-1-butenyl)-1,2-benzisothiazol-5-yl]-6-(trifluoromethyl)-, (E)-]
- ECHORC herbicidal effect rating [1, 15]: 3.0
- ECHORC herbicidal effect rating [1, 16]: 7.0
- ECHORC herbicidal effect rating [1, 17]: 7.0
- ECHORC herbicidal effect rating [1, 18]: 7.0
- CYPSE herbicidal effect rating [2, 15]: 0.0
- CYPSE herbicidal effect rating [2, 16]: 0.0
- CYPSE herbicidal effect rating [2, 17]: 0.0
- CYPSE herbicidal effect rating [2, 18]: 0.0
- CYPIR herbicidal effect rating [3, 15]: 5.0
- CYPIR herbicidal effect rating [3, 16]: 9.0
- CYPIR herbicidal effect rating [3, 17]: 9.0
- CYPIR herbicidal effect rating [3, 18]: 9.0
- SAGPY herbicidal effect rating [4, 15]: 0.0
- SAGPY herbicidal effect rating [4, 16]: 0.0
- SAGPY herbicidal effect rating [4, 17]: 0.0
- SAGPY herbicidal effect rating [4, 18]: 3.0
- MOOVA herbicidal effect rating [5, 15]: 4.0
- MOOVA herbicidal effect rating [5, 16]: 9.0
- MOOVA herbicidal effect rating [5, 17]: 9.0
- MOOVA herbicidal effect rating [5, 18]: 9.0
- ORYSAT herbicidal effect rating [6, 19]: 3.0
- ORYSAT herbicidal effect rating [6, 20]: 7.0
- ORYSAT herbicidal effect rating [6, 21]: 7.0
- ORYSAT herbicidal effect rating [6, 22]: 7.0
